The target in test [1] is T1, P2X7 (Homo sapiens, UniProt Q99572).
T1 construct: expressed in transfected cells
T1 sequence (Q99572 1-595): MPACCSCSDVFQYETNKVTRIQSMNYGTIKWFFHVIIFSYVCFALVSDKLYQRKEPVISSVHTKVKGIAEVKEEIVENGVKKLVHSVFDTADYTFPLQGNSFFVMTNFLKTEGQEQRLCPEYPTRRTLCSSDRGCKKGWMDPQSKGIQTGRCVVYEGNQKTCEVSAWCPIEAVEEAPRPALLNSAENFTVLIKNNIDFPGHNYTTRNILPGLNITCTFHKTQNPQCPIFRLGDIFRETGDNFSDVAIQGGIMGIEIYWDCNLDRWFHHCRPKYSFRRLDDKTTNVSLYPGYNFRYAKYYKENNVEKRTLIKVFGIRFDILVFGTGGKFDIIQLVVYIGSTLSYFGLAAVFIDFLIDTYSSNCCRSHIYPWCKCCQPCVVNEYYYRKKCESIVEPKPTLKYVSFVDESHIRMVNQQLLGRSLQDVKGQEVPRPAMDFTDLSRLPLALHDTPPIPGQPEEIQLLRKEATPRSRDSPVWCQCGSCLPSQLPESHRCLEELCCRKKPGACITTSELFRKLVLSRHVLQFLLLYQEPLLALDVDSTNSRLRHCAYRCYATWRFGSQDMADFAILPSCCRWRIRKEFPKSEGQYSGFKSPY
The test can be described thus: ATP-induced YO-PRO-1 dye uptake in HEK-hP2X7 cells. Format: cell-based. The settings on record: for IC50: HEK-hP2X7, 10 min pre-treatment, read-out: IC50 value (95% CI); for Effect on P2X7 responses: purified glycosides/aglycone from potentiating extracts; for P2X7 response (% of control): compound 10 µM injected 60 s before ATP; for Effect on YO-PRO-1 uptake at high concentrations: > 30 µM. The protocol:
HEK-hP2X7 or HEK-hP2X4 cells were plated at 2.5 × 10^4 cells per well (100 µL volume) the day before experiments into poly-D-lysine (Merck Millipore) coated 96-well plates (NUNC, Fisher Scientific #167-008). The membrane impermeant dye YO-PRO-1 iodide (Life Technologies, Fisher Scientific) was used at a final concentration of 2 µM in low divalent buffer (145 mM NaCl, 5 mM KCl, 0.2 mM CaCl2, 13 mM glucose, 10 mM HEPES, pH 7.3, osm 300–310). Media were removed from the plate, and 90 µL of YO-PRO-1 buffer was added per well. Plates were warmed to 37 °C for 5 min before recording. Data was acquired on a Flexstation 3 plate reader (Molecular Devices) using excitation wavelength 490 nm, emission wavelength 520 nm, and six reads per well (PMT medium). […] […] Pipette height was set to 80 µL and the rate of injection was 4.
YO-PRO-1 dye uptake assay data is plotted as a percentage of control where control responses are measured in the absence of plant extract. Cell viability data is plotted as a percentage of control or background-corrected fluorescence data. Concentration–response graphs were plotted using GraphPad Prism v6 with a non-linear regression fit (variable slope). IC50 values were generated from collated datasets from a minimum of three independent experiments. Statistical differences were determined by one-way ANOVA statistical tests performed using GraphPad Prism v6 with Dunnett’s multiple comparison post hoc test. Significance was taken as P ≤ 0.05.
We acquired a natural product library (Set IV) containing 419 compounds from NCI DTP and tested these on P2X7 responses using a YO-PRO-1 dye uptake in HEK293 cells stably expressing human P2X7 (HEK-hP2X7). […] This allowed us to assess for any immediate effect of the injected compound, and secondly, it allowed for any potential negative modulators to be pre-incubated with P2X7.

In test [2] the target is T1, P2X7. Nature of the test: fura-2 intracellular calcium assay in HEK-hP2X7 cells. Format: cell-based. The settings on record: fura-2-loaded HEK-hP2X7, 10 min pre-treatment, 1 mM ATP. The procedure: Supplementary Figure 3: Validation of P2X7 antagonist activity using a fura-2 assay. HEK-hP2X7 cells were loaded with fura-2AM (2µM) to measure intracellular calcium responses to ATP. Cells were loaded for 45 minutes at 37 °C and then pre-treated with various concentrations of test compounds for 10 minutes. For full methodological details please see [1]. Responses to 1mM ATP were assessed over 300 seconds using a Flexstation 3 plate reader. Ratiometric fura-2 data was converted to area under curve.

The target of test [3] is T2, hP2X7 (Homo sapiens, UniProt Q99572).
T2 sequence (Q99572 1-595): T1 sequence (Q99572 1-595)
Nature of the test: Whole-cell patch-clamp electrophysiology in HEK-hP2X7 cells. Format: cell-based. The following applies: 10 µM with ATP 100 µM, 5-s application, −60 mV. The procedure: Stably expressing HEK-hP2X7 cells were plated onto 13-mm glass coverslips 24 h prior to use. Membrane currents were recorded in the whole-cell patch-clamp configuration using an EPC10 amplifier (HEKA Elektronik) and borosilicate glass electrodes (TF-150 World Precision Instruments), resistance […] when filled with standard internal solution (145 mM NaCl, 10 mM HEPES, 10 mM EGTA, pH 7.3). Cells were voltage-clamped at − 60 mV, and dialysis of intracellular contents was performed for 1 min prior to experimental procedures. Cells were continuously perfused by gravity feed with standard divalent buffer solution (145 mM NaCl, 5 mM KCl, 2 mM CaCl2, 1 mM MgCl2, 13 mM glucose, 10 mM HEPES, pH 7.3) prior to seal formation, and low divalent buffer solution was used for agonist and PAM application. Agonists were applied using a computer-controlled fast-flow system (RSC-160; Bio-Logic Scientific Instruments) with the perfusion capillaries placed in close proximity to the cell under investigation.
Fig. 6 Dioscin enhances P2X7-dependent pore formation and potentiates channel opening. A Dioscorea nipponica (organic) plant extract (30 µg/mL) increased ATP-dependent YO-PRO-1 iodide uptake. AZ10606120 (10 µM, grey bars) was added to block hP2X7. B YO-PRO-1 uptake following a co-stimulation of HEK-hP2X7 cells with 200 µM ATP ± the named compounds in the presence or absence of AZ10606120. YO-PRO-1 uptake was quantified between 50 and 300 s (n = 5). C Whole-cell patch-clamp recordings were performed at room temperature. Cells were voltage-clamped at − 60 mV, and responses to a 5-s stimulation of ATP (100 µM) followed by a 5-s stimulation of ATP (100 µM) + dioscin/diosgenin (10 µM) were measured from HEK-hP2X7 cells. Representative traces are shown. D Summary of normalised current amplitudes represented as a fold change compared to ATP responses in the absence of dioscin/diosgenin (n = 10–18 cells). E Concentration response to ATP in the presence of dioscin (10 µM, green) or vehicle (DMSO, black) using YO-PRO-1 uptake assay in HEK-hP2X7 and F HEK-293 cells. […]

Test [4] deals with T2, hP2X7. The settings on record: inhibition of hP2X7 currents by electrophysiology; read-out: IC50 value; cited from earlier work.
[5] abbreviates: screen for potential negative allosteric modulators.

In the case of `COc1ccc2cc3[n+](cc2c1OC)CCc1cc2c(cc1-3)OCO2` [Berberine], the IC50 at P2X7 [1] (ATP 1 mM) was 5.17 µM. In addition, the “P2X7 antagonist activity on ATP-induced calcium responses” value on P2X7 [2] was “demonstrated P2X7 antagonist activity”.
For the compound `C[C@@H]1CC[C@@]2(OC1)O[C@H]1C[C@H]3[C@@H]4CC=C5C[C@@H](O)CC[C@]5(C)[C@H]4CC[C@]3(C)[C@H]1[C@@H]2C` [Diosgenin, diosgenin], the “Effect on P2X7 responses” value at P2X7 [1] is “could not potentiate responses”. Moreover, on hP2X7 [3], the “Potentiation of hP2X7 ion channel opening” value is given as “not capable of potentiating P2X7 channel opening”.
As for `O=C(O[C@@H]1Cc2c(O)cc(O)cc2O[C@@H]1c1cc(O)c(O)c(O)c1)c1cc(O)c(O)c(O)c1` [EGCG, epigallocatechin gallate], the “P2X7 antagonist activity on ATP-induced calcium responses” value on P2X7 [2] is reported as “demonstrated P2X7 antagonist activity”.
`CC(=O)O[C@H]1C[C@]2(O)[C@@H]3CC[C@@H]4C[C@@H](O)CC[C@]4(C)[C@H]3CC[C@]2(C)[C@H]1C1=CC(=O)OC1` [Oleandrogenin]: at P2X7 [1] (setting [5]), the “P2X7 response (% of control)” value is 42.33 % of control.
In the case of `CCCCCCCCCCCCCCCC(=O)O` [Palmitic acid], on P2X7 [1] (HEK-hP2X7), the “Effect on YO-PRO-1 uptake at high concentrations” value was “reduction of YO-PRO-1 uptake in hP2X7 cells at high concentrations”.
For `CC(=O)CCCCn1c(=O)c2c(ncn2C)n(C)c1=O` [Pentoxifylline, reference compound], at P2X7 [1] (screen for PAM activity), the “P2X7 response (% of control)” value is 140.48 % of control.
On the same count and under the same terms, next, `CC(C)=CCC[C@@H](C)C1=C(O)C(=O)C(C)=CC1=O` [Perezone]: 148.44 % of control.
The same measure, in the same setting: next, `COc1cc([C@@H]2c3cc4c(cc3[C@H](O)[C@H]3COC(=O)[C@@H]23)OCO4)cc(OC)c1OC` [Picropodophyllin]: 145.86 % of control.
For `CC1(C)C[C@]23[C@@H]4COC(=O)[C@H]2CC[C@H]1[C@@H]3CC4=O` [Quadrone], the “P2X7 response (% of control)” value on P2X7 [1] (setting [5]) is on record as 40.82 % of control.
Same read-out and setting: next, `CO[C@H]1[C@@H](O)[C@@H](C)O[C@@H](OC2CCC3(C)C(CCC4C3C(O)CC3(C)C(C5=CC(=O)OC5)CCC43O)C2)[C@@H]1O` (some centres unmarked) [Sarnovid]: 38.95 % of control.
As to `COc1cc2ccc(=O)oc2cc1O` [Scopoletin], at P2X7 [1] (HEK-hP2X7), the “Effect on YO-PRO-1 uptake at high concentrations” value was “reduction of YO-PRO-1 uptake in hP2X7 cells at high concentrations”. Besides, the IC50 on P2X7 [1] (ATP 1 mM) was 39.9 µM.
`C=C(NC(=O)C(=C)NC(=O)c1csc(C2=N[C@@H]3c4csc(n4)[C@H]4NC(=O)c5csc(n5)[C@H]([C@](C)(O)[C@@H](C)O)NC(=O)[C@H]5CSC(=N5)/C(=C/C)NC(=O)[C@H]([C@@H](C)O)NC(=O)c5csc(n5)[C@]3(CC2)NC(=O)[C@H](C)NC(=O)C(=C)NC(=O)C(=C)NC(=O)[C@H](C(C)C)N[C@@H]2C=Cc3c([C@H](C)O)cc(nc3[C@H]2O)C(=O)O[C@@H]4C)n1)C(N)=O` [Siomycin A]: the “P2X7 response (% of control)” value on P2X7 [1] (screen for PAM activity) is given as 157.10 % of control.
The same measure, in the same setting: then `COC1=C(N)C(=O)c2nc(-c3nc(C(=O)O)c(C)c(-c4ccc(OC)c(OC)c4O)c3N)ccc2C1=O` [Streptonigrin], with 139.02 % of control.
Regarding `COc1ccc2c(c1OC)CN1CCc3cc4c(cc3C1C2)OCO4` (centres unmarked) [Tetrahydroberberine], the “Effect on ATP-mediated YO-PRO-1 uptake” value on P2X7 [1] (10 µM, 10 min pre-incubation, ATP 1 mM) was “able to reduce ATP-mediated YO-PRO-1 uptake”. The “P2X7 response (% of control)” value on P2X7 [1] (setting [5]) is listed as 26.9 % of control.
With `CO[C@@H]1/C=C/O[C@@]2(C)Oc3c(C)c(O)c4c(c3C2=O)C(=N[C@@H]2CC[C@@H](O)O[C@H]2C)C=C(NC(=O)/C(C)=C\C(=O)[C@@H]2C[C@@H]2[C@H](O)[C@@H](C)[C@@H](O)[C@@H](C)[C@H](OC(C)=O)[C@@H]1C)C4=O` [Tolypromycin Y], the “P2X7 response (% of control)” value on P2X7 [1] (setting [5]) was 47.05 % of control.
For `COc1cc(C=O)ccc1O` [Vanilline], the “P2X7 response (% of control)” value at P2X7 [1] (screen for PAM activity) was 158.27 % of control.
The same measure, in the same setting: then `COC(=O)/C(=C1/OC(=O)C(c2ccccc2)=C1O)c1ccccc1` [Vulpinic acid], with 150.3 % of control.
The same measure, in the same setting: next, `CC1=C(C)C(=O)O[C@@H]([C@](C)(O)[C@H]2CC[C@H]3[C@@H]4[C@@H]5O[C@@H]5[C@@]5(O)CC=CC(=O)[C@]5(C)[C@H]4CC[C@]23C)C1` [Withanolide A]: 149.93 % of control.
Consider `O=C(O)c1cc(O)c(O)c(O)c1` [gallic acid], for which, at hP2X7 [4], the IC50 was 4.26 µM.
`COc1ccc2c(c1)CC=C(CO)c1cc3c(cc1-2)OCO3` [tenuifolin]: the “Effect on P2X7 responses” value on P2X7 [1] is recorded as “no effect on P2X7 responses”.
Take `COc1cc([C@@H]2c3cc4c(c(O)c3C[C@H]3COC(=O)[C@@H]32)OCO4)cc(OC)c1OC` [Β-peltatin]: on P2X7 [1] (setting [5]), the “P2X7 response (% of control)” value is reported as 31.98 % of control.
For Erythromycin cyclopentylproprionate, on P2X7 [1] (screen for PAM activity), the “P2X7 response (% of control)” value is recorded as 126.67 % of control.
The same measure, in the same setting: then Hexopyranuronic acid, with 147.11 % of control; and Medicarpin, with 140.60 % of control; and Monoacetyl verrucan A, with 170.65 % of control.
For Ossamycin, at P2X7 [1] (screen for PAM activity), the “P2X7 response (% of control)” value is 145.55 % of control.
Same read-out and setting: next, Predorine: 740.31 % of control.
Consider Scopafungin, for which the “Sensitivity of the potentiated ATP response to P2X7 antagonist AZ10606120” value on P2X7 [1] (AZ10606120 10 µM) is “could be prevented by pre-treatment with the P2X7 selective antagonist, AZ10606120”. The “YO-PRO-1 uptake in the absence of ATP” value on P2X7 [1] (HEK-hP2X7) is listed as “increase in YO-PRO-1 uptake in the absence of ATP”. For the same compound, at P2X7 [1] (compound 10 µM), the “Effect on ATP concentration–response curve” value is “increase the maximum response to ATP and increase the sensitivity to ATP”. Further, the “P2X7 response (% of control)” value at P2X7 [1] (screen for PAM activity) was 159.83 % of control.

The values above are taken from paper PMC12062478, “Screening herbal and natural product libraries to aid discovery of novel allosteric modulators of human P2X7” (Purinergic Signalling, 2024).
